Test results taken from article PMC10578352, “Identification of a Protein Arginine Methyltransferase 7 (PRMT7)/Protein Arginine Methyltransferase 9 (PRMT9) Inhibitor” (Journal of Medicinal Chemistry, 2023).

How the values were obtained:
human recombinant PRMT9 = target: T1, human recombinant PRMT9 (Homo sapiens, UniProt Q6P2P2); experiment: AlphaLISA PRMT9 activity assay (modified BPS kit, biotinylated SF3B2 peptide); assay type: biochemical; details: for IC50: PRMT9 0.105 μM, biotinylated SF3B2 (500–519) peptide 100 nM, SAM 25 μM
T1 construct: human recombinant PRMT9 (2–845; N-terminal FLAG-tag, C-terminal His6-tag); FLAG (N); His6 (C); purchased BPS BioScience 79124
T1 sequence (Q6P2P2 2-845): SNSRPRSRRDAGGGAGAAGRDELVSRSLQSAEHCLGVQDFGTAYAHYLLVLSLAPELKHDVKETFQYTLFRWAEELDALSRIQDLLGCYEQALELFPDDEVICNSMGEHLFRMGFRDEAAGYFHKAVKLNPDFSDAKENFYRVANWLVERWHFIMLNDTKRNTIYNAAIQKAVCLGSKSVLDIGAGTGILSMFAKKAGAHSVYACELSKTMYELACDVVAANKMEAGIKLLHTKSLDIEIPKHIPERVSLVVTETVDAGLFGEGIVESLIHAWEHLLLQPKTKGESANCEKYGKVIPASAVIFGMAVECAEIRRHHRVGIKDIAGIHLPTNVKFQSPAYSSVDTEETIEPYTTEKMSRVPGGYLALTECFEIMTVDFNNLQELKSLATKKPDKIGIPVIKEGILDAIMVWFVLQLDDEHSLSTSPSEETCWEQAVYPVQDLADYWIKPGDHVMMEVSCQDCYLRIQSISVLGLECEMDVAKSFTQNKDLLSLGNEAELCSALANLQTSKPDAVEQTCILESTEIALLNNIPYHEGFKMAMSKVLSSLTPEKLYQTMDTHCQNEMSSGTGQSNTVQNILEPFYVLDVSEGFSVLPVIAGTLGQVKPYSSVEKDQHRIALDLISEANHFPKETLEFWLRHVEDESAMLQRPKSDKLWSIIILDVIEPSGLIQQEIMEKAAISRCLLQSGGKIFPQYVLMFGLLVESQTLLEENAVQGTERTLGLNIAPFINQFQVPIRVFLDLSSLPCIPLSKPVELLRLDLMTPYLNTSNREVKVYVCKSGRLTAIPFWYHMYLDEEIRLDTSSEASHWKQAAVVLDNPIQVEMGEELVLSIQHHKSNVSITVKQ
Method: Accordingly, all the enzymatic inhibition data were obtained by performing the assays in these optimized conditions.
The reaction was incubated for 60 min. Afterward, in each well, 5 μL of a 1:100 dilution of Primary antibody 28 (BPS BioScience, #52140Z3) in Detection buffer (BPS BioScience) and 5 μL of anti-Rabbit acceptor beads (PerkinElmer, #AL104C) were added to obtain a final concentration of 20 μg/mL.
For each incubation step, the OptiPlate was sealed with a protective foil to prevent evaporation and contamination. Donor and Acceptor beads were added to the mixture in subdued light.
The 100% activity (positive control) was reached using vehicle (DMSO), while 0% activity (negative control) was obtained without the protein. Data were analyzed by using Excel and Prism software. Values obtained for each compound are mean ± SD determined for three separate experiments.

[1] = set-up: method as in PMID 35482954; details: cited from earlier work
[2] = tested on: PRMT4-catalyzed arginine methylation in MCF-7 cells; set-up: method as in PMID 35482954; details: cited from earlier work
MCF-7 cells = tested on: MCF-7 cells; set-up: method as in PMID 35482954; details: cited from earlier work
PRMT1 = target: T2, PRMT1 (Homo sapiens, UniProt Q99873); experiment: HotSpot radioisotope-based filter assay, PRMT1; assay type: biochemical; details: 5 μM histone H4, 3H-SAM 1 μM
T2 construct: PRMT1 (residues 2–371, C-terminus); with an N-terminal GST-tag; GST (N); purchased Reaction Biology Corporation
T2 sequence (Q99873 2-371): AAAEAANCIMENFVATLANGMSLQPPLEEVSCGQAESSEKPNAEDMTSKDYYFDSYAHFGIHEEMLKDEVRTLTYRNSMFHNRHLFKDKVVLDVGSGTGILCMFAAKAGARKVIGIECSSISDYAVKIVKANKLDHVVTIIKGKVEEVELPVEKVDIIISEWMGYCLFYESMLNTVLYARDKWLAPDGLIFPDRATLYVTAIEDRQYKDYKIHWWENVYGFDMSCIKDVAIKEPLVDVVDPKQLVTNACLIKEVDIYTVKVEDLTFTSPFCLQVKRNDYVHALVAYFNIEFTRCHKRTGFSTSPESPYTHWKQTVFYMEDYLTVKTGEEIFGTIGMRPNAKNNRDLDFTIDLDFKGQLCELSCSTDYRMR
Method: (§1) Then, ^3H-SAM (final concentration of 1 μM) was delivered into the reaction mixture to initiate the reaction. After incubation for 60 min at 30 °C, the reaction mixture was delivered to filter-paper for detection (as assessed by scintillation). Data were analyzed using Excel and GraphPad Prism 6.0 software (GraphPad Software Inc., San Diego, CA) for IC50 curve fits using sigmoidal dose vs response - variable slope (four parameters) equations.

PRMT3 = target: T3, PRMT3 (Homo sapiens, UniProt O60678); experiment: HotSpot radioisotope-based filter assay, PRMT3; assay type: biochemical; details: 5 μM histone H4, 3H-SAM 1 μM
T3 construct: PRMT3 (residues 2–531, C-terminus); with an N-terminal His-tag; His (N); purchased Reaction Biology Corporation
T3 sequence (O60678 2-531): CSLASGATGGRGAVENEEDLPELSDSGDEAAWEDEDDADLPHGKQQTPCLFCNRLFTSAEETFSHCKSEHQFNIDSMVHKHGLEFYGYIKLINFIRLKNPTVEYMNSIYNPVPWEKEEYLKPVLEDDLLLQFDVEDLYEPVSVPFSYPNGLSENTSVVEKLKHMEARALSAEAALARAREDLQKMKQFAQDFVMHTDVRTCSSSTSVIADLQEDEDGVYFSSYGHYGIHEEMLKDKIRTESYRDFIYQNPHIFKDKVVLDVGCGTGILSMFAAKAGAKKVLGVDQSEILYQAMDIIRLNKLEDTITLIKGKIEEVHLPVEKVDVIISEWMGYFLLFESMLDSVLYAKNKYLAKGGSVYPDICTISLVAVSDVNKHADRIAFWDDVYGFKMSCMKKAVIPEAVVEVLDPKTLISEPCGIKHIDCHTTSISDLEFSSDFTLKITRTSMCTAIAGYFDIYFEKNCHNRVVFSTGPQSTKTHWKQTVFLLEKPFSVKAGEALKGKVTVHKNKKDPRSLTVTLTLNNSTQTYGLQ
Method: as §1

PRMT4 = target: T4, PRMT4 (Homo sapiens, UniProt Q86X55); experiment: HotSpot radioisotope-based filter assay, PRMT4; assay type: biochemical; details: 5 μM histone H3, 3H-SAM 1 μM
T4 construct: PRMT4 (residues 2–608, C-terminus); with an N-terminal GST-tag; GST (N); purchased Reaction Biology Corporation
T4 sequence (Q86X55 2-608): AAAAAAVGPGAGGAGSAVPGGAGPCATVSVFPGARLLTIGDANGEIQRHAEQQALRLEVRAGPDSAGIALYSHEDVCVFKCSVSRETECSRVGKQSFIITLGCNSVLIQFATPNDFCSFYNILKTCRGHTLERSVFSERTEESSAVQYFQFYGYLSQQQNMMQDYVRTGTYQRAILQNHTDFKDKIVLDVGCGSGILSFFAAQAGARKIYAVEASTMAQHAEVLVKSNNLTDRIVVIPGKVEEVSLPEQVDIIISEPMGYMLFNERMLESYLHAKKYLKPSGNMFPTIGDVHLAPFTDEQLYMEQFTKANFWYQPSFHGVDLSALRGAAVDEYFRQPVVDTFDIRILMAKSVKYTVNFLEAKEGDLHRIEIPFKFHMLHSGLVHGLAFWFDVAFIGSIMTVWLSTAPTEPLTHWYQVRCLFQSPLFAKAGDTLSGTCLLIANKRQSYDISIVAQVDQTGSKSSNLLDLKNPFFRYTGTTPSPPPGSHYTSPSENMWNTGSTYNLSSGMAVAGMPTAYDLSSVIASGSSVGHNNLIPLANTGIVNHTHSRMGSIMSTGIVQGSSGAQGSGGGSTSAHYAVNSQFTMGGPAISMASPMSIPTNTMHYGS
Method: as §1

PRMT5/MEP50 complex = target: T5, PRMT5/MEP50 complex (Homo sapiens, UniProt O14744); experiment: HotSpot radioisotope-based filter assay, PRMT5; assay type: biochemical; details: 5 μM histone H2A, 3H-SAM 1 μM
T5 construct: residues PRMT5 2–637, C-terminus, and MEP50 2–342, C-terminus; FLAG (N); purchased Reaction Biology Corporation
T5 sequence (O14744 2-637): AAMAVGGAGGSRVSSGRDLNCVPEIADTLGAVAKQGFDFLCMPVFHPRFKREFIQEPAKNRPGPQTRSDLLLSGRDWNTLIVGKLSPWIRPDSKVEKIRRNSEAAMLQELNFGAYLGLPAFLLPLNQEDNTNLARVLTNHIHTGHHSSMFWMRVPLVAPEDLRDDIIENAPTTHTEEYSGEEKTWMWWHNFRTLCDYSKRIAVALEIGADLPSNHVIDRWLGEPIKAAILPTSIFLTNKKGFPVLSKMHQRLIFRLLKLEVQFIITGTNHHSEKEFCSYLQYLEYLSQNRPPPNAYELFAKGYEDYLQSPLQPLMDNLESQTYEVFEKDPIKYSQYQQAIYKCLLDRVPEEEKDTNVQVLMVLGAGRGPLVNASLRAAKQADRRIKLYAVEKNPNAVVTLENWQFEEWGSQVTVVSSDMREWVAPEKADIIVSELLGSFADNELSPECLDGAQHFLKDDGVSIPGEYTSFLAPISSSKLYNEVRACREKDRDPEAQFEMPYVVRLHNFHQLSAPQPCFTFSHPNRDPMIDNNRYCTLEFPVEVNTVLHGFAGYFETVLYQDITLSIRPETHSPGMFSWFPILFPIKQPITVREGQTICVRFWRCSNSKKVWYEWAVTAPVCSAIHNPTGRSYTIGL
T5 sequence (Q9BQA1 2-342 partner limits assumed): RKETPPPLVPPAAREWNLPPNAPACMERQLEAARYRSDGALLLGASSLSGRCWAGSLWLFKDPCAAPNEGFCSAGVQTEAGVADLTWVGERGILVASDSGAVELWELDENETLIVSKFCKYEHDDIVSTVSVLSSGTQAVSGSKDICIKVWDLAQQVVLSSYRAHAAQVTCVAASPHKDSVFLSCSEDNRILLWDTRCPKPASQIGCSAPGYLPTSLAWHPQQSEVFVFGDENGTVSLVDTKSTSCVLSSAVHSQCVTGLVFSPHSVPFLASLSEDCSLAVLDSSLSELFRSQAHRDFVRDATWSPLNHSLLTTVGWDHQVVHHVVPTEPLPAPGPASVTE
Method: as §1

PRMT6 = target: T6, PRMT6 (Homo sapiens, UniProt Q96LA8); experiment: HotSpot radioisotope-based filter assay, PRMT6; assay type: biochemical; details: 5 μM GST-GAR, 3H-SAM 1 μM
T6 construct: PRMT6 (residues 2–375, C-terminus); with an N-terminal GST-tag; GST (N); purchased Reaction Biology Corporation
T6 sequence (Q96LA8 2-375): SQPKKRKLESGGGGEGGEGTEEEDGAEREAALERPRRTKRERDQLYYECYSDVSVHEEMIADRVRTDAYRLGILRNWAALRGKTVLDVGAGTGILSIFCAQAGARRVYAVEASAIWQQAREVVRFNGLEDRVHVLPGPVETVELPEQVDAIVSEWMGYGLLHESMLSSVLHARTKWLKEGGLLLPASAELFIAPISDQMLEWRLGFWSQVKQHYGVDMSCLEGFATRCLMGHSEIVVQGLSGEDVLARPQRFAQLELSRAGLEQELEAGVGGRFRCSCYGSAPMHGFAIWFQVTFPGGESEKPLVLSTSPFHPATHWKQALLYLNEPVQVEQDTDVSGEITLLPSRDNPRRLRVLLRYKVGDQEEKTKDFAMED
Method: as §1

PRMT7 = target: T7, PRMT7 (Homo sapiens, UniProt Q9NVM4); experiment: HotSpot radioisotope-based filter assay, PRMT7; assay type: biochemical; details: 5 μM GST-GAR, 3H-SAM 1 μM
T7 construct: PRMT7 (residues 2–692, C-terminus); with an N-terminal His-tag; His (N); purchased Reaction Biology Corporation
T7 sequence (Q9NVM4 2-692): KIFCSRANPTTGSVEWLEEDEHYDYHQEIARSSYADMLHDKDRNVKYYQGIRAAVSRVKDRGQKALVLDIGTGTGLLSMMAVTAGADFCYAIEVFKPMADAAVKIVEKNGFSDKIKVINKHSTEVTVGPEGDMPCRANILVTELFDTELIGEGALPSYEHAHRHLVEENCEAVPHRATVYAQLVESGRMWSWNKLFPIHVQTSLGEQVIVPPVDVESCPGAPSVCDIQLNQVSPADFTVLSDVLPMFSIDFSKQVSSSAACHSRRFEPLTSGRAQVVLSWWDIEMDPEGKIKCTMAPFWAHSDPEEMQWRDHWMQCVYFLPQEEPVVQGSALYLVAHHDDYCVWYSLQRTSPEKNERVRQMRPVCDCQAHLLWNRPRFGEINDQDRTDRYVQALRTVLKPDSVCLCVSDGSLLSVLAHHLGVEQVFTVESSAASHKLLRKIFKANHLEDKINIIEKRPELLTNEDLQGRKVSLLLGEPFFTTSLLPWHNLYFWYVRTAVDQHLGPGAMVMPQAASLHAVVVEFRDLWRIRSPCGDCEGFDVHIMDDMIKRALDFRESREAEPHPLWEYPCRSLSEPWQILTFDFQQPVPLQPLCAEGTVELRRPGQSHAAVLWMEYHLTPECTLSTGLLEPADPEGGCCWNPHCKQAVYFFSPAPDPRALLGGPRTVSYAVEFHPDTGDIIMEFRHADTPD
Method: as §1

PRMT8 = target: T8, PRMT8 (Homo sapiens, UniProt Q9NR22); experiment: HotSpot radioisotope-based filter assay, PRMT8; assay type: biochemical; details: 5 μM histone H4, 3H-SAM 1 μM
T8 construct: (residues 61–394, C-terminus); with C- and N-terminal His-tags; His (N); His (C); purchased Reaction Biology Corporation
T8 sequence (Q9NR22 61-394): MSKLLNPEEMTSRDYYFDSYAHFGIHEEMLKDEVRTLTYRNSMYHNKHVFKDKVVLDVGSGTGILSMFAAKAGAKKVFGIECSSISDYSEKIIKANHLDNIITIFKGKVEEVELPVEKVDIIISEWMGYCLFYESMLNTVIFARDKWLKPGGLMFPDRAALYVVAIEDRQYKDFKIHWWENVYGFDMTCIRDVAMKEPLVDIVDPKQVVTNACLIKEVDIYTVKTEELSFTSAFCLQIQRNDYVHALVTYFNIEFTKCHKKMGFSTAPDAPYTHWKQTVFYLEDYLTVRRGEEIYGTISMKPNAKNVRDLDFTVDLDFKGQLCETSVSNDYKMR
Method: as §1

In the case of COC(=O)c1cc(O)c2cc(NC(=O)NCCCCNC(=N)NC/C=C/[C@H]3O[C@@H](n4cnc5c(N)ncnc54)[C@H](O)[C@@H]3O)ccc2c1 [1h], the IC50 (human recombinant PRMT9) is listed as 9.3 µM, the cell permeability [1] is listed as “low” and the “PRMT4-catalyzed arginine methylation levels” value [2] is listed as “evident reduction”. For the same compound, the proliferation (MCF-7 cells) was “marked reduction”.
In the case of COC(=O)c1cc(O)c2cc(NC(=O)NCCNC(=N)NC[C@H]3O[C@@H](n4cnc5c(N)ncnc54)[C@H](O)[C@@H]3O)ccc2c1 [1i, Methyl 6-(3-(2-(3-(((2R,3S,4R,5R)-5-(6-Amino-9H-purin-9-yl)-3,4-dihydroxytetrahydrofuran-2-yl)methyl)guanidino)ethyl)ureido)-4-hydroxy-2-naphthoate], the “reduction in potency against PRMT9 compared to 1a” value (human recombinant PRMT9; AlphaLISA IC50 values) is reported as 3 fold, the IC50 (human recombinant PRMT9) is reported as 2.47 µM and the IC50 (PRMT1) is reported as over 100 µM. For the same compound, the IC50 (PRMT3) was over 100 µM, the IC50 (PRMT4) was 22.8 µM and the IC50 (PRMT5/MEP50 complex) was 9.4 µM. The IC50 (PRMT6) was 70 µM, the IC50 (PRMT7) was 0.54 µM and the IC50 (PRMT8) was 42 µM.
